Results on 15 compounds are retold here after patent US11957687B2 (REGENERON PHARMACEUTICALS, INC., priority 2019, dated 2024).

A short description of data set [1]: Microsome stability assay, human liver microsomes. The format is in vitro ADME. The settings on record: 1 μM compound, 0.5 mg/mL microsomal protein; for microsomal CLint at 1 h, 1 µM / half-life at 1 h, 1 µM / microsomal CLint at 1 μM / half-life at 1 μM: human, human liver microsomes, pooled, NADPH, 37° C.; for microsomal CLint at 1 h, 1 µM / microsomal CLint at 1 μM: read-out: Microsome Stability Human liver microsomes Cl; for half-life at 1 h, 1 µM / half-life at 1 μM: read-out: Microsome Stability Human liver microsomes T½. In short, it runs like this:
(§1)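 Compound at 1 μM incubated at 37° C with pooled human or mouse liver microsomes (0.5 mg/mL protein) plus NADPH regenerating system, sampled at 0–60 min; a 60-min no-NADPH incubation also included. Single replicate; LC/MS/MS disappearance from analyte/internal standard peak area ratios, without standard curve.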

The target of data set [2] is HSD17B2 (Homo sapiens (Human), UniProt P37059). Briefly: HSD17B2 enzymatic blocking assay. It is filed as biochemical. The settings on record: 1.8 μM Estradiol, 650 μM NAD; read-out: Inhibition of HSD17B2 IC50. In outline: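 Mammalian-expressed enzyme at 2 ng/μL in 50 mM Tris-HCl pH 7.5 with detergents/BSA, preincubated 15 min at 20° C. with compound (10-point titration). Reaction with 1.8 μM estradiol and 650 μM NAD ran 45 min at 20° C.; NADH measured by NADH-Glo luminescence and IC50 derived.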
Sequence of HSD17B2 (P37059 other isoform, or with tags, fused parts or gaps): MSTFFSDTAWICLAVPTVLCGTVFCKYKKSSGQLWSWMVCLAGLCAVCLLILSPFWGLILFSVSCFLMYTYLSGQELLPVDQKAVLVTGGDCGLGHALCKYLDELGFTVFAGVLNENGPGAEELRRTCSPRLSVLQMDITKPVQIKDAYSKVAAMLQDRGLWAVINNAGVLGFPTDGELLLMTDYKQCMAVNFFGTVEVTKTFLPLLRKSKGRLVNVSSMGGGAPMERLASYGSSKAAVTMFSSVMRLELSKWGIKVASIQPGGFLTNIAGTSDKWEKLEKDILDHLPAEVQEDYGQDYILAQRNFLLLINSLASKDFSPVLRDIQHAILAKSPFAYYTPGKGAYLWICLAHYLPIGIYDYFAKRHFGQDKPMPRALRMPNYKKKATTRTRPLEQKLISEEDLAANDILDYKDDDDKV

Data set [3] deals with HSD17B1 (Homo sapiens (Human), UniProt P14061). Briefly: HSD17B1 enzymatic blocking assay. Conditions: 25 μM Estradiol, 500 μM NAD; read-out: Inhibition of HSD17B1 IC50. It is filed as biochemical. In short, it runs like this:
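Activity followed as NADH formed on estradiol oxidation, read by NADH-Glo luminescence after 1 h detection in the dark at room temperature. Compounds preincubated with enzyme 30 min at room temperature; 0.5% DMSO and no-substrate controls. IC50 fitted from luminescence.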

For data set [4], the target named is HSD17B13 (Homo sapiens (Human), UniProt Q7Z5P4). Kind of data set: HSD17B13 enzymatic inhibition assay (150 nM or 50 nM HSD17B13). The format is biochemical.
Sequence of HSD17B13 (Q7Z5P4 other isoform, or with tags, fused parts or gaps): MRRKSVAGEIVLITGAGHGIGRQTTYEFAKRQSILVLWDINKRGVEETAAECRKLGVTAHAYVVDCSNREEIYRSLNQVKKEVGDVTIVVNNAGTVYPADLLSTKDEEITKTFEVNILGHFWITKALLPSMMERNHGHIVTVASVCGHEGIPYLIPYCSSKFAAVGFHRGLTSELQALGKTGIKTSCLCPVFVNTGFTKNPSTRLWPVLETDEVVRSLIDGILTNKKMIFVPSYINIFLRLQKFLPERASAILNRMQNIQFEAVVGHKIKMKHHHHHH
The nature of data set [5]: Microsome stability assay, mouse liver microsomes. The format is in vitro ADME. The settings on record: 1 μM compound, 0.5 mg/mL microsomal protein; for microsomal CLint at 1 h, 1 µM / half-life at 1 h, 1 µM: mouse, mouse liver microsomes, pooled, NADPH, 37° C.; for microsomal CLint at 1 h, 1 µM: read-out: Microsome Stability Mouse liver microsomes Cl; for half-life at 1 h, 1 µM: read-out: Microsome Stability Mouse liver microsomes T½. In short, it runs like this: as §1

[6] abbreviates: 50 nM HSD17B13, read-out: Inhibition of 50 nM of HSD17B13 IC50.

Read-outs that look alike come from different tables or passages of the source.

Sequence of HSD17B1 (P14061 other isoform, or with tags, fused parts or gaps): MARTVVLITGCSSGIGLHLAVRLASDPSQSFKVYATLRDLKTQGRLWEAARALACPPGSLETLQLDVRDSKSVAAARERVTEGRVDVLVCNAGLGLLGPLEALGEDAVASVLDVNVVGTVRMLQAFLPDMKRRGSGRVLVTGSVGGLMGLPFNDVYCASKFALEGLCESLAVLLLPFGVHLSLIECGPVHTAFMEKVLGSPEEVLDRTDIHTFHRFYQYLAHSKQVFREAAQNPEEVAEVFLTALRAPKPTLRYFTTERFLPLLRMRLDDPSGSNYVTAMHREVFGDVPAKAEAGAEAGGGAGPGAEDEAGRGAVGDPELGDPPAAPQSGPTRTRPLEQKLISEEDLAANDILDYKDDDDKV

For orientation: IC50 means the midpoint of a concentration-inhibition curve. Consider `O=C(NC(c1ccccc1)c1ccc(-c2ccccc2)cc1)c1ccc(C(F)(F)F)[nH]c1=O` (stereo not drawn) [Compound 2, N-([1,1′-biphenyl]-4-yl(phenyl)methyl)-2-oxo-6-(trifluoromethyl)-1,2-dihydropyridine-3-carboxamide], for which, in data set [1], the “Microsome Stability Human liver microsomes % Remaining @60 min” value is on record as 3.40%; the microsomal CLint at 1 h, 1 µM stood at 110 µL/min/mg; the half-life at 1 h, 1 µM came to 12.6 min. For the same compound, in data set [2], the IC50 was 8.02 µM. The IC50 in data set [3] was more than 30 µM. Further, in data set [4] (setting [6]), the IC50 is 0.74 µM.
Consider `Cc1ccccc1C(NC(=O)c1ccc(C(F)(F)F)[nH]c1=O)c1ccccc1` (stereo not drawn) [Compound 5, N-(phenyl(o-tolyl)methyl)-2-oxo-6-(trifluoromethyl)-1,2-dihydropyridine-3-carboxamide], for which, in data set [1], the “Microsome Stability Human liver microsomes % Remaining @60 min” value came out at 16.00%; the microsomal CLint at 1 h, 1 µM came to 52 µL/min/mg; the half-life at 1 h, 1 µM came out at 26.6 min. Also, the IC50 in data set [2] stood at 15.3 µM. The IC50 in data set [3] is more than 30 µM. Besides, the IC50 in data set [4] (setting [6]) stood at 0.85 µM.
For the compound `O=C(NC(c1ccccc1)c1ccccc1Cl)c1ccc(C(F)(F)F)[nH]c1=O` (stereo not drawn) [Compound 9, N-((2-chlorophenyl)(phenyl)methyl)-2-oxo-6-(trifluoromethyl)-1,2-dihydropyridine-3-carboxamide], in data set [5], the “Microsome Stability Mouse liver microsomes % Remaining @60 min” value amounted to 16.80%; the microsomal CLint at 1 h, 1 µM worked out at 59.6 µL/min/mg; the half-life at 1 h, 1 µM is 23.3 min. Further, in data set [1], the “Microsome Stability Human liver microsomes % Remaining @60 min” value was determined as 82.00%, the microsomal CLint at 1 μM was less than 9.6 µL/min/mg and the half-life at 1 μM is more than 145 min. Also, the IC50 in data set [2] stood at 8.48 µM. The IC50 in data set [3] is more than 30 µM.
For `Cc1ccc(C(NC(=O)c2ccc(C(F)(F)F)[nH]c2=O)c2ccc(C)cc2)cc1` [Compound 15, N-(di-p-tolylmethyl)-2-oxo-6-(trifluoromethyl)-1,2-dihydropyridine-3-carboxamide], in data set [5], the “Microsome Stability Mouse liver microsomes % Remaining @60 min” value is listed as 5.60%; the microsomal CLint at 1 h, 1 µM was found to be 96.8 µL/min/mg; the half-life at 1 h, 1 µM worked out at 14.3 min. Besides, in data set [1], the “Microsome Stability Human liver microsomes % Remaining @60 min” value is 41.70%; the microsomal CLint at 1 h, 1 µM worked out at 30.2 µL/min/mg; the half-life at 1 h, 1 µM came out at 45.9 min. In data set [2], the IC50 was found to be 11.2 µM. The IC50 in data set [3] was more than 30 µM. Also, the IC50 in data set [4] (setting [6]) is 0.26 µM.
Take `O=C(NC(c1ccc(Cl)cc1)c1ccc(Cl)cc1)c1ccc(C(F)(F)F)[nH]c1=O` [Compound 17, N-(bis(4-chlorophenyl)methyl)-2-oxo-6-(trifluoromethyl)-1,2-dihydropyridine-3-carboxamide]: in data set [5], the “Microsome Stability Mouse liver microsomes % Remaining @60 min” value came out at 70.60%; the microsomal CLint at 1 h, 1 µM stood at 10.2 µL/min/mg; the half-life at 1 h, 1 µM stood at 136 min. Also, in data set [1], the “Microsome Stability Human liver microsomes % Remaining @60 min” value stood at 97.60%, the microsomal CLint at 1 μM was less than 9.6 µL/min/mg and the half-life at 1 μM is more than 145 min. Further, the IC50 in data set [2] is 10.9 µM. In addition, the IC50 in data set [3] was more than 30 µM. Further, in data set [4] (setting [6]), the IC50 came out at 0.96 µM.
As for `O=C(NC(c1ccccc1)c1ccc(Cl)cc1)c1ccc(C(F)(F)F)[nH]c1=O` (stereo not drawn) [Compound 21, N-((4-chlorophenyl)(phenyl)methyl)-2-oxo-6-(trifluoromethyl)-1,2-dihydropyridine-3-carboxamide], in data set [1], the “Microsome Stability Human liver microsomes % Remaining @60 min” value is 73.00%; the microsomal CLint at 1 h, 1 µM stood at 10.8 µL/min/mg; the half-life at 1 h, 1 µM worked out at 128 min. Besides, the IC50 in data set [2] is 12 µM. The IC50 in data set [3] was more than 30 µM. In addition, the IC50 in data set [4] (setting [6]) worked out at 0.75 µM.
`O=C(NC1c2ccccc2-c2ccccc21)c1ccc(C(F)(F)F)[nH]c1=O` [Compound 25, N-(9H-fluoren-9-yl)-2-oxo-6-(trifluoromethyl)-1,2-dihydropyridine-3-carboxamide]: in data set [1], the “Microsome Stability Human liver microsomes % Remaining @60 min” value came out at 1.00%; the microsomal CLint at 1 h, 1 µM came out at 265 µL/min/mg; the half-life at 1 h, 1 µM worked out at 5.22 min. The IC50 in data set [2] came out at 18.2 µM. The IC50 in data set [3] was more than 30 µM. In data set [4] (setting [6]), the IC50 turned out to be 0.53 µM.
With `Cc1ccc(C(NC(=O)c2ccc(C(F)(F)F)[nH]c2=O)c2ccccc2)cc1` (stereo not drawn) [Compound 27, N-(phenyl(p-tolyl)methyl)-2-oxo-6-(trifluoromethyl)-1,2-dihydropyridine-3-carboxamide], the “Microsome Stability Human liver microsomes % Remaining @60 min” value in data set [1] is recorded as 0.40%. Further, the microsomal CLint at 1 h, 1 µM in data set [1] turned out to be 511 µL/min/mg. Moreover, in data set [1], the half-life at 1 h, 1 µM was determined as 2.71 min. Moreover, the IC50 was 16.8 µM in data set [2]; more than 30 µM in data set [3]; 1.06 µM in data set [4] (setting [6]); 0.47 µM in data set [4] (150 nM HSD17B13, read-out: Inhibition of 150 nM of HSD17B13 IC50).
Regarding `Cc1ccc2c(c1)Oc1cc(C)ccc1C2NC(=O)c1cc(-c2ncccn2)c(C(F)(F)F)[nH]c1=O` [Compound 509, N-(3,6-dimethyl-9H-xanthen-9-yl)-2-oxo-5-(pyrimidin-2-yl)-6-(trifluoromethyl)-1,2-dihydropyridine-3-carboxamide], the IC50 was 11.9 µM in data set [2], 3.48 µM in data set [3] and 0.01 µM in data set [4] (setting [6]).
Take `Cc1ccc2c(c1)Oc1cc(C)ccc1C2NC(=O)c1cc(-c2ccccn2)c(C(F)(F)F)[nH]c1=O` [Compound 510, N-(3,6-dimethyl-9H-xanthen-9-yl)-6′-oxo-2′-(trifluoromethyl)-1′,6′ dihydro-[2,3′-bipyridine]-5′-carboxamide]: the IC50 in data set [2] amounted to 5.53 µM; in data set [3] it was 2.19 µM; in data set [4] (setting [6]) it was 0.02 µM.
For the compound `C=CCc1cc(C(=O)NC2c3ccc(C)cc3Oc3cc(C)ccc32)c(=O)[nH]c1C(F)(F)F` [Compound 511, 5-allyl-N-(3,6-dimethyl-9H-xanthen-9-yl)-2-oxo-6-(trifluoromethyl)-1,2-dihydropyridine-3-carboxamide], the IC50 in data set [2] was found to be 16.2 µM; in data set [3] it was 6.13 µM; in data set [4] (setting [6]), 0.05 µM.
Regarding `CN1c2ccccc2C(NC(=O)c2ccc(C(F)(F)F)[nH]c2=O)c2ccccc21` [Compound 519, N-(10-methyl-9,10-dihydroacridin-9-yl)-2-oxo-6-(trifluoromethyl)-1,2-dihydropyridine-3-carboxamide], the IC50 is more than 100 µM in data set [2], 7.22 µM in data set [3] and 1.35 µM in data set [4] (setting [6]).
With `Cc1ccc2c(c1)Oc1cc(C)ccc1C2NC(=O)c1cc(CCc2ccccc2)c(C(F)(F)F)[nH]c1=O` [Compound 520, N-(3,6-dimethyl-9H-xanthen-9-yl)-2-oxo-5-phenethyl-6-(trifluoromethyl)-1,2-dihydropyridine-3-carboxamide], the figures for the IC50 in data set [2], in data set [3] and in data set [4] (setting [6]) were 25.3 µM, 13.7 µM and 0.02 µM, respectively.
For `CCCc1cc(C(=O)NC2c3ccc(C)cc3Oc3cc(C)ccc32)c(=O)[nH]c1C(F)(F)F` [Compound 521, N-(3,6-dimethyl-9H-xanthen-9-yl)-2-oxo-5-propyl-6-(trifluoromethyl)-1,2-dihydropyridine-3-carboxamide], in that order: 29.2 µM, 7.42 µM and 0.02 µM.
On the same counts, the results for `N#Cc1ccc2c(c1)Oc1ccccc1C2NC(=O)c1ccc(C(F)(F)F)[nH]c1=O` (stereo not drawn) [Compound 528, N-(3-cyano-9H-xanthen-9-yl)-2-oxo-6-(trifluoromethyl)-1,2-dihydropyridine-3-carboxamide] are 23.2 µM, 17 µM and 0.09 µM.
